# Reference: patent US20260262643A1, “HERBICIDAL BENZOXAZINES” (FMC CORPORATION, priority 2022, published 2026)
# What was measured:
# foxtail, giant [1] = assay: Test A preemergence; assay type: in vivo, Setaria faberi
# In short: (§1)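 Visual injury ratings on a 0–100 scale (100 = complete control) versus untreated controls, taken 10 days after treatment in greenhouse. Preemergence: directed soil spray onto seeded loam/sand. Postemergence: foliar application at one- to two-leaf stage, plants 2–10 cm. Formulation: non-phytotoxic solvent plus surfactant.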
# sedge, umbrella = assay: Test B flooded paddy test; assay type: in vivo, Cyperus difformis; conditions: 250 g ai/ha, Flood, 13 days, 0 to 100 scale (0 no effect, 100 complete control)
# In short: (§2)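 Each species was raised to the 2-leaf stage. At treatment, each pot received floodwater 3 cm deep, with the chemical delivered into the water. Greenhouse holding followed for 13 days, then percent control was estimated visually versus untreated pots.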
# foxtail, giant [2] = assay: Test A postemergence; assay type: in vivo, Setaria faberi
# In short: as §1
# barnyardgrass = assay: Test B flooded paddy test; assay type: in vivo, Echinochloa crus-galli; conditions: 250 g ai/ha, Flood, 13 days, 0 to 100 scale (0 no effect, 100 complete control)
# In short: as §2
# goosegrass [3] = assay: Test A postemergence; assay type: in vivo, Eleusine indica
# In short: as §1
# ryegrass, Italian [4] = assay: Test A preemergence; assay type: in vivo, Lolium multiflorum
# In short: as §1
# ryegrass, Italian [5] = assay: Test A postemergence; assay type: in vivo, Lolium multiflorum
# In short: as §1
# rice = assay: Test B flooded paddy test; assay type: in vivo, Oryza sativa; conditions: 250 g ai/ha, Flood, 13 days, 0 to 100 scale (0 no effect, 100 complete control)
# In short: as §2
# oat, wild [6] = assay: Test A preemergence; assay type: in vivo, Avena fatua
# In short: as §1
# kochia [7] = assay: Test A postemergence; assay type: in vivo, Bassia scoparia
# In short: as §1
# wheat [8] = assay: Test A postemergence; assay type: in vivo, Triticum aestivum
# In short: as §1
# ducksalad = assay: Test B flooded paddy test; assay type: in vivo, Heteranthera limosa; conditions: 250 g ai/ha, Flood, 13 days, 0 to 100 scale (0 no effect, 100 complete control)
# In short: as §2
# ragweed [9] = assay: Test A preemergence; assay type: in vivo, Ambrosia artemisiifolia
# In short: as §1
# soybean [10] = assay: Test A postemergence; assay type: in vivo, Glycine max
# In short: as §1
# pigweed, palmer [11] = assay: Test A postemergence; assay type: in vivo, Amaranthus palmeri
# In short: as §1
# soybean [12] = assay: Test A preemergence; assay type: in vivo, Glycine max
# In short: as §1
# kochia [13] = assay: Test A preemergence; assay type: in vivo, Bassia scoparia
# In short: as §1
# blackgrass [14] = assay: Test A postemergence; assay type: in vivo, Alopecurus myosuroides
# In short: as §1
# blackgrass [15] = assay: Test A preemergence; assay type: in vivo, Alopecurus myosuroides
# In short: as §1
# ragweed [16] = assay: Test A postemergence; assay type: in vivo, Ambrosia artemisiifolia
# In short: as §1
# goosegrass [17] = assay: Test A preemergence; assay type: in vivo, Eleusine indica
# In short: as §1
# wheat [18] = assay: Test A preemergence; assay type: in vivo, Triticum aestivum
# In short: as §1
# oat, wild [19] = assay: Test A postemergence; assay type: in vivo, Avena fatua
# In short: as §1
# corn [20] = assay: Test A preemergence; assay type: in vivo, Zea mays
# In short: as §1
# galium = assay: Test A postemergence; assay type: in vivo, Galium aparine
# In short: as §1
# corn [21] = assay: Test A postemergence; assay type: in vivo, Zea mays
# In short: as §1
# pigweed, palmer [22] = assay: Test A preemergence; assay type: in vivo, Amaranthus palmeri
# In short: as §1
# [23] = 125 g ai/ha, visual injury after 10 days, 0 to 100 scale, 0 is no effect, 100 is complete control
# [24] = 500 g ai/ha, 0 to 100 scale (0 no effect, 100 complete control), 10 days
# [25] = 125 g ai/ha, postemergence, 10 days, visual injury, 0 to 100 scale (0 no effect, 100 complete control)
# [26] = 500 g ai/ha, Postemergence, 0 to 100 scale
structure (smiles),measurement,setting,value
Cc1cc(F)cc2c1OC(C)CN2C(=O)c1cccc(-n2cncn2)c1 (centres unmarked) [Compound 44],"Plant response rating, Foxtail, Giant","foxtail, giant [1]; [23]",70
same,"Plant response rating, Foxtail, Giant","foxtail, giant [1]; [24]",100
same,"Plant response rating, Sedge, Umbrella","sedge, umbrella",0
same,"Plant response rating, Foxtail, Giant","foxtail, giant [2]; [25]",40
same,"Plant response rating, Foxtail, Giant","foxtail, giant [2]; [26]",90
same,"Plant response rating, Barnyardgrass",barnyardgrass,0
same,"Plant response rating, Goosegrass",goosegrass [3]; [25],30
same,"Plant response rating, Goosegrass",goosegrass [3]; [26],70
same,"Plant response rating, Ryegrass, Italian","ryegrass, Italian [4]; [23]",80
same,"Plant response rating, Ryegrass, Italian","ryegrass, Italian [4]; [24]",100
same,"Plant response rating, Ryegrass, Italian","ryegrass, Italian [5]; [25]",50
same,"Plant response rating, Ryegrass, Italian","ryegrass, Italian [5]; [26]",80
same,"Plant response rating, Rice",rice,0
same,"Plant response rating, Oat, Wild","oat, wild [6]; [23]",10
same,"Plant response rating, Oat, Wild","oat, wild [6]; [24]",50
same,"Plant response rating, Kochia",kochia [7]; [25],10
same,"Plant response rating, Kochia",kochia [7]; [26],20
same,"Plant response rating, Wheat",wheat [8]; [25],30
same,"Plant response rating, Wheat",wheat [8]; [26],80
same,"Plant response rating, Ducksalad",ducksalad,0
same,"Plant response rating, Ragweed",ragweed [9]; [23],0
same,"Plant response rating, Ragweed",ragweed [9]; [24],0
same,"Plant response rating, Soybean",soybean [10]; [25],100
same,"Plant response rating, Soybean",soybean [10]; [26],100
same,"Plant response rating, Pigweed, Palmer","pigweed, palmer [11]; [25]",30
same,"Plant response rating, Pigweed, Palmer","pigweed, palmer [11]; [26]",10
same,"Plant response rating, Soybean",soybean [12]; [23],40
same,"Plant response rating, Soybean",soybean [12]; [24],70
same,"Plant response rating, Kochia",kochia [13]; [23],0
same,"Plant response rating, Kochia",kochia [13]; [24],20
same,"Plant response rating, Blackgrass",blackgrass [14]; [25],30
same,"Plant response rating, Blackgrass",blackgrass [14]; [26],60
same,"Plant response rating, Blackgrass",blackgrass [15]; [23],10
same,"Plant response rating, Blackgrass",blackgrass [15]; [24],80
same,"Plant response rating, Ragweed",ragweed [16]; [25],0
same,"Plant response rating, Ragweed",ragweed [16]; [26],0
same,"Plant response rating, Goosegrass",goosegrass [17]; [23],90
same,"Plant response rating, Goosegrass",goosegrass [17]; [24],100
same,"Plant response rating, Wheat",wheat [18]; [23],0
same,"Plant response rating, Wheat",wheat [18]; [24],40
same,"Plant response rating, Oat, Wild","oat, wild [19]; [25]",0
same,"Plant response rating, Oat, Wild","oat, wild [19]; [26]",80
same,"Plant response rating, Corn",corn [20]; [23],10
same,"Plant response rating, Corn",corn [20]; [24],30
same,"Plant response rating, Galium",galium; [25],50
same,"Plant response rating, Galium",galium; [26],70
same,"Plant response rating, Corn",corn [21]; [25],30
same,"Plant response rating, Corn",corn [21]; [26],70
same,"Plant response rating, Pigweed, Palmer","pigweed, palmer [22]; [23]",10
same,"Plant response rating, Pigweed, Palmer","pigweed, palmer [22]; [24]",20
